Test [1] deals with MCF7. The test can be described thus: cells. It counts as functional, cell-based. Conditions: Homo sapiens.
Description: Anti-proliferative activity against estrogen-responsive human breast cancer cell line MCF-7 in the presence of ER at a 10e-4 uM concentration of estradiol
The test system of test [2] is MCF7. Put plainly: cells. It counts as functional, cell-based. Conditions: Homo sapiens. This is another data set of the same source.
Description: Inhibition of 10e-4 uM estradiol induced estrogen receptor positive MCF-7 human breast cancer cell proliferation
Another test has as its target Estrogen receptor (Homo sapiens, UniProt Q92731+P03372).
The test system of test [3] is MCF7. The test can be described thus: Inhibition of estrogen receptor positive MCF-7 human breast cancer cell proliferation. Format: functional, cell-based.
For test [4], the system named is HeLa. Put plainly: Inhibition of […]e-2 uM estradiol induced human cancer cell HeLa S3 proliferation. Format: functional, cell-based.
The subject of test [5] is WiDr. Put plainly: Inhibition of WiDr human cancer cell proliferation. It counts as functional, cell-based.
The test system of test [6] is MDA-MB-453. The test can be described thus: Inhibition of estrogen receptor negative MDA-MB-453 breast cancer cell proliferation. Conditions: Homo sapiens. Format: functional, cell-based.
Test [7] deals with WiDr. Put plainly: Inhibition of WiDr human cancer cell proliferation with 10e-2 uM estradiol. It counts as functional, cell-based.
For test [8], the system named is HeLa. Put plainly: cells. Conditions: Homo sapiens.
Description: Inhibition of 10e-2 uM estradiol induced human cancer cell HeLa S3 proliferation
Test [9] has as its system MDA-MB-453. The test can be described thus: cells. Conditions: Homo sapiens.
Description: Inhibition of estrogen receptor negative MDA-MB-453 breast cancer cell proliferation with 10e-4 M estradiol

Each structure is given as a SMILES string.

Description for Estrogen receptor: Binding affinity for estrogen receptor, by competition with [3H]estradiol

Consider `CN(C)c1ccc(-c2cc(=O)c3ccc(N)cc3o2)cc1`, for which the IC50 in the test with MCF7 [1] was found to be 5 µM; in the test on MCF7 [2], 6.9 µM.

For `Nc1cccc2oc(-c3ccc(Br)cc3)cc(=O)c12`, the IC50 is above 100 µM against Estrogen receptor, 1 µM in the test on MCF7 [1] and 9.5 µM with MCF7 [2].

`Nc1cccc2oc(-c3ccc(O)cc3)cc(=O)c12`: the IC50 on Estrogen receptor is 18 µM; in the test on MCF7 [1], 1.5 µM; in the test on MCF7 [2], above 100 µM.

`CCN(CC)c1ccc(-c2cc(=O)c3c(N)cccc3o2)cc1`: the values for the IC50 in the test on MCF7 [1] and with MCF7 [2] were 0.002 µM and 0.01 µM, respectively.

For the molecule `N#Cc1ccc(-c2cc(=O)c3c(N)cccc3o2)cc1`, the IC50 against Estrogen receptor was above 100 µM; in the test with MCF7 [1] it was above 100 µM; in the test with MCF7 [2], 94 µM.

For `CC(=O)Nc1ccc(-c2cc(=O)c3c(N)cccc3o2)cc1`, the IC50 at Estrogen receptor was above 100 µM; with MCF7 [1] it was 13 µM; in the test on MCF7 [2] it was 18 µM.

Take `CN(C)c1ccc(-c2cc(=O)c3c(N)cccc3o2)cc1`: the values for the IC50 at Estrogen receptor, in the test with MCF7 [1] and with MCF7 [2] were above 100 µM, 0.004 µM and 0.005 µM, respectively.

Consider `CN(C)c1cccc(-c2cc(=O)c3cc(N)ccc3o2)c1`, for which the IC50 in the test with MCF7 [1] and in the test with MCF7 [2] was 13 µM in each case.

Regarding `CCCCNc1ccc(-c2cc(=O)c3c(N)cccc3o2)cc1`, the IC50 on Estrogen receptor was above 100 µM; in the test on MCF7 [1] it was 0.0051 µM; in the test on MCF7 [2], 0.0087 µM.

As for `CN(C)c1ccc(-c2cc(=O)c3cc(N)ccc3o2)cc1`, the IC50 in the test on MCF7 [1] stood at 0.013 µM; in the test on MCF7 [2], 0.035 µM.

Regarding `Nc1cccc(-c2cc(=O)c3c(N)cccc3o2)c1`, the IC50 in the test with MCF7 [1] is 27 µM; in the test with MCF7 [2], above 100 µM.

For the molecule `Nc1cccc2oc(-c3ccc(NCc4ccccc4)cc3)cc(=O)c12`, the IC50 on Estrogen receptor was above 100 µM; in the test with MCF7 [1], 4.1 µM; in the test with MCF7 [2], 4.3 µM.

Turning to `CCNc1ccc(-c2cc(=O)c3c(N)cccc3o2)cc1`, the IC50 with MCF7 [3] was 0.092 µM; in the test with HeLa [4], above 10 µM; at Estrogen receptor it was above 100 µM; in the test on WiDr [5], above 10 µM; in the test with MCF7 [1], 0.0013 µM; in the test with MCF7 [2], 0.0017 µM.

As for `COc1ccc(-c2cc(=O)c3c(N)cccc3o2)cc1`, the figures for the IC50 at Estrogen receptor, in the test on MCF7 [1] and in the test with MCF7 [2] were above 100 µM, 12 µM and above 100 µM, respectively.

With `Nc1cccc2oc(-c3ccc(C(=O)O)cc3)cc(=O)c12`, the IC50 in the test on MCF7 [1] and with MCF7 [2] was above 10 µM each time.

Turning to `CNc1ccc(-c2cc(=O)c3c(N)cccc3o2)cc1`, the IC50 is 0.076 µM in the test on MCF7 [3]; 6.3 µM with HeLa [4]; above 100 µM at Estrogen receptor; above 10 µM in the test with WiDr [5]; 0.0023 µM in the test on MCF7 [1]; 0.0054 µM in the test with MCF7 [2].

With `CN(C)c1ccc(-c2cc(=O)c3cccc(N)c3o2)cc1`, the IC50 with MCF7 [1] was found to be 0.021 µM; in the test with MCF7 [2], 2 µM.

Regarding `CCCCCCNc1ccc(-c2cc(=O)c3c(N)cccc3o2)cc1`, the half-inhibitory concentration (IC50) worked out at 0.075 µM with MCF7 [1] and 0.44 µM in the test with MCF7 [2].

`CCCNc1ccc(-c2cc(=O)c3c(N)cccc3o2)cc1`: the IC50 at Estrogen receptor is above 100 µM; in the test with MCF7 [1], 0.0067 µM; with MCF7 [2] it was 0.0087 µM.

As for `Nc1cccc2oc(-c3ccccc3)cc(=O)c12`, the IC50 against Estrogen receptor is above 100 µM; in the test on MCF7 [1], 13 µM; with MCF7 [2], above 100 µM.

With `Nc1ccc(-c2cc(=O)c3c(N)cccc3o2)cc1`, the IC50 in the test on MCF7 [3] is 0.052 µM; with HeLa [4], above 10 µM; against Estrogen receptor, above 100 µM; with WiDr [5] it was above 10 µM; in the test with MDA-MB-453 [6], above 5 µM; in the test on MCF7 [1], 0.0072 µM. The molecule further showed an IC50 with MCF7 [2] of 0.0098 µM.

As to `O=c1cc(-c2ccc(O)cc2)oc2cc(O)cc(O)c12` [APIGENIN], the half-maximal inhibitory concentration (IC50) is above 100 µM with MCF7 [1] and 95 µM in the test on MCF7 [2].

For the molecule `COc1cccc2c1C(=O)c1c(O)c3c(c(O)c1C2=O)C[C@@](O)(C(=O)CO)C[C@@H]3O[C@H]1C[C@H](N)[C@H](O)[C@H](C)O1` [DOXORUBICIN], the IC50 in the test on WiDr [7] worked out at 0.62 µM; in the test on HeLa [8], 0.03 µM.

With `O=c1c(-c2ccc(O)cc2)coc2cc(O)cc(O)c12` [GENISTEIN], the IC50 amounted to 11 µM in the test on MCF7 [1] and 77 µM in the test on MCF7 [2].

As to `CC/C(=C(\c1ccccc1)c1ccc(OCCN(C)C)cc1)c1ccccc1` [TAMOXIFEN], the IC50 with MCF7 [1] is 0.14 µM; with MCF7 [2] it was 19 µM; with MDA-MB-453 [9] it was above 5 µM.
